Measurements taken from US20150038545A1, “HYDROXYPHENYL PYRROLE COMPOUNDS CONTAINING AN HYDROXAMIC ACID AS HDAC INHIBITORS AND MEDICINAL APPLICATIONS THEREOF” (UNIVERSIDAD DEL PAÍS VASCO, priority 2011, published 2015).

Columns and labels:
Human HDAC1 = target: T1, Human HDAC1 (Homo sapiens, UniProt Q13547); assay: In vitro HDAC1 inhibition, fluorogenic peptide assay; type: biochemical; conditions: for IC50: read-out: IC50 (nM) of enzyme activity HDAC1
T1 construct: Full length with C-terminal GST tag, MW=79.9 kDa; GST (C); purchased BioMol SE-456; host or cells: Sf9 cells, baculovirus
Description: (§1) All HDAC assays were performed using acetylated AMC-labeled peptide substrate: • Substrate for isoforms HDAC1, 2, 3, 4, 5, 6, 7, 9, 10, 11 and HeLa nuclear extract assays: Acetylated fluorogenic peptide from p53 residues 379-382 (RHKKAc) (BioMol. Cat. # KI-104). • Substrate for HDAC8 assays: Acetylated fluorogenic peptide from p53 residues 379-382 (RHKAcKAc) (BioMol. Cat. # KI-178).
(§2) Enzymes: • HDAC1 assay: 75 nM Human HDAC1 (GenBank Accession No. NM_004964): Full length with C-terminal GST tag, MW=79.9 kDa, expressed by baculovirus expression system in Sf9 cells (BioMol. Cat. # SE-456). • HDAC2 assay: 5 nM Human HDAC2 (GenBank Accession No. Q92769): Full length with C-terminal His tag, MW=60 kDa, expressed by baculovirus expression system in Sf9 cells (BioMol. Cat. # SE-500). • HDAC3 assay: 2.3 nM Human HDAC3/NcoR2 (GenBank Accession No. NM_003883 for HDAC3, GenBank Accession No.NM_006312 for NcoR2): Complex of human HDAC3, full length with C-terminal His tag, MW=49.7 kDa, and human NCOR2, N-terminal GST tag, MW=39 kDa, co-expressed in baculovirus expression system (BioMol. Cat. # SE-507). • HDAC4 assay: 266 nM Human HDAC4 (GenBank Accession No. NM_006037): Amino acids 627-1085 with N-terminal GST tag, MW=75.2 kDa, expressed in baculovirus expression system (BioMol, Hamburg, Germany). • HDAC5 assay: 588 nM Human HDAC5 (GenBank Accession No. NM_001015053): Full length with Nterminal GST tag, MW=150 kDa, expressed by baculovirus expression system in Sf9 cells (BioMol, Hamburg, Germany). • HDAC6 assay: 13 nM Human HDAC6 (GenBank Accession No. BC069243): Full length with N-terminal GST tag, MW=159 kDa, expressed by baculovirus expression system in Sf9 cells (BioMol. Cat. # SE-508). • HDAC7 assay: 962 nM Human HDAC7 (GenBank Accession No. AY302468): Amino acids 518-end with N-terminal GST tag, MW=78 kDa, expressed in baculovirus expression system (BioMol, Hamburg, Germany). • HDAC8 assay: 119 nM Human HDAC8 (GenBank Accession No. NM018486): Full length, MW=42 kDa, expressed in an E. coli expression system (BioMol. Cat. # SE-145). • HDAC9 assay: 986 nM Human HDAC9 (GenBank Accession No. NM178423): Amino acids 604-1066 with C-terminal His tag, MW=50.7 kDa, expressed in baculovirus expression system (BioMol, Hamburg, Germany). • HDAC10 assay: 781 nM Human HDAC10 (GenBank Accession No. NM_032019): Amino acids 1-631 with Nterminal GST tag, MW=96 kDa, expressed by baculovirus expression system in Sf9 cells (BioMol. Cat. # SE-559). • HDAC11 assay: 781 nM Human HDAC11 (GenBank Accession No. NM_BC009676) with N-terminal GST tag, MW=66 kDa, expressed in baculovirus expression system (BioMol. Cat. # SE-560). • HeLaNuclear Extract assay: 25 ng/μl Nuclear Extract from HeLa Cells: Prepared by high salt extraction of HeLa nuclei (human cervical cancer cell line), this extract is a rich source of HDAC activity (BioMol. Cat. # KI-140).
(§3) The reactions were carried out in a 96-well microplate for fluorometry in a 50 μl reaction volume. After the deacetylation reaction, Fluor-de-Lys-Developer (BioMol Cat. # KI-105) was added to each well to digest the deacetylated substrate, thus producing the fluorescent signal. The reaction was allowed to develop for 45 minutes at 30° C. with 5% CO2; then the fluorescent signal was measured with an excitation wavelength at 360 nm and an emission wavelength at 460 nm in a microplate-reading fluorometer (GeminiXS; Molecular Devices, Sunnyvale, Calif.). […] All experiments were performed in triplicate. IC50 was calculated by fitting the experimental data to a dose-response curve. DMSO was used as negative control; Trichostatin A (Biomol Cat. # GR-309) was used as positive control inhibitor.

Human HDAC3/NcoR2 = target: T2, Human HDAC3/NcoR2 (Homo sapiens, UniProt O15379); assay: In vitro HDAC3 inhibition, fluorogenic peptide assay; type: biochemical; conditions: for IC50: read-out: IC50 (nM) of enzyme activity HDAC3
T2 construct: Complex of human HDAC3, full length with C-terminal His tag, MW=49.7 kDa; His (C); purchased BioMol SE-507
Description: as §1, §2, §3

[1] = test system: T3, Nuclear Extract from HeLa Cells; assay: HeLa nuclear extract HDAC inhibition assay; type: biochemical, Human; conditions: HeLa cell line nuclear extract
T3 construct: 25 ng/μl Nuclear Extract from HeLa Cells: Prepared by high salt extraction of HeLa nuclei (human cervical cancer cell line)
Description: as §1, §2, §3

Human HDAC8 = target: T4, Human HDAC8 (Homo sapiens, UniProt Q9BY41); assay: In vitro HDAC8 inhibition, fluorogenic peptide assay; type: biochemical; conditions: for IC50: read-out: IC50 (nM) of enzyme activity HDAC8
T4 construct: Full length, MW=42 kDa, expressed in an E. coli expression system; purchased BioMol SE-145; host or cells: E. coli
T4 sequence (Q9BY41 1-377): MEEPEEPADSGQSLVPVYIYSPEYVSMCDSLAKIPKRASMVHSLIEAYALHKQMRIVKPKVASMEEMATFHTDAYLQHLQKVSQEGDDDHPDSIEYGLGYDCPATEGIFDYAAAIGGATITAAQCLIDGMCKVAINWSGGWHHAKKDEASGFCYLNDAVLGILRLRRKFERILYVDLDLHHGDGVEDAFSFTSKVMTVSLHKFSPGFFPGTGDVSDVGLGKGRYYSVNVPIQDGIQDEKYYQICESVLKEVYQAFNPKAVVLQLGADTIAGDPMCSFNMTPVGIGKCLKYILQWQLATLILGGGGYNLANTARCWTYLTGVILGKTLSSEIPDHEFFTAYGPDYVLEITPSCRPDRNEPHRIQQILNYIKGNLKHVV
Description: as §1, §2, §3

Human HDAC2 = target: T5, Human HDAC2 (Homo sapiens, UniProt Q92769); assay: In vitro HDAC2 inhibition, fluorogenic peptide assay; type: biochemical; conditions: for IC50: read-out: IC50 (nM) of enzyme activity HDAC2
T5 construct: Full length with C-terminal His tag, MW=60 kDa; His (C); purchased BioMol SE-500; host or cells: Sf9 cells, baculovirus
Description: as §1, §2, §3

T1 sequence (Q13547 whole entry): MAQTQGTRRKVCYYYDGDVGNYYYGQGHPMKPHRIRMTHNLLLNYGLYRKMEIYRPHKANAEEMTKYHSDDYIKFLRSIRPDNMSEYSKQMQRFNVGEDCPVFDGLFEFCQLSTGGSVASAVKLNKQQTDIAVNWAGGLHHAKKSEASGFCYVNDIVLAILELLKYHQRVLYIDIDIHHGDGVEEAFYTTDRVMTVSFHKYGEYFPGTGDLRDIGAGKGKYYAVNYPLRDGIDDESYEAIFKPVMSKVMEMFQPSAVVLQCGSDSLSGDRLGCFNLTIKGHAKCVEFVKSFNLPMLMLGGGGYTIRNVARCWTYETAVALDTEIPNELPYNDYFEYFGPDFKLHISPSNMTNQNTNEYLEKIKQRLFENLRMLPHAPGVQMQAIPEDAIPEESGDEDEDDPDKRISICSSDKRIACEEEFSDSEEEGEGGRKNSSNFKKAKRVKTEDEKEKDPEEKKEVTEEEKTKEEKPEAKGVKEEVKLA
T5 sequence (Q92769 whole entry): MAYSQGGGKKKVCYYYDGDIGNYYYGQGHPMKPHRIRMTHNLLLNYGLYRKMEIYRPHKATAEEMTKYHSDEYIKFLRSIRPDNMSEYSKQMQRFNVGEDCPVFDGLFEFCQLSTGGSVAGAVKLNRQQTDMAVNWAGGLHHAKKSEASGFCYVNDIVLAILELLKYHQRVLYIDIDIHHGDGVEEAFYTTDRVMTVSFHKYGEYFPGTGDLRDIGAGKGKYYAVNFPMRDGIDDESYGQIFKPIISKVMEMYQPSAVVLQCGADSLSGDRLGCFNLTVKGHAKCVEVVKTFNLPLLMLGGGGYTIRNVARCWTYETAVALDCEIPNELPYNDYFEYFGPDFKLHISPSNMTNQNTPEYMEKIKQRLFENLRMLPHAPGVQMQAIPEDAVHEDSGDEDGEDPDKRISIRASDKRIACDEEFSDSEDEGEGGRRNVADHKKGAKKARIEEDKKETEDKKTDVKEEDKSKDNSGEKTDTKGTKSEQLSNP
T2 sequence (O15379 whole entry): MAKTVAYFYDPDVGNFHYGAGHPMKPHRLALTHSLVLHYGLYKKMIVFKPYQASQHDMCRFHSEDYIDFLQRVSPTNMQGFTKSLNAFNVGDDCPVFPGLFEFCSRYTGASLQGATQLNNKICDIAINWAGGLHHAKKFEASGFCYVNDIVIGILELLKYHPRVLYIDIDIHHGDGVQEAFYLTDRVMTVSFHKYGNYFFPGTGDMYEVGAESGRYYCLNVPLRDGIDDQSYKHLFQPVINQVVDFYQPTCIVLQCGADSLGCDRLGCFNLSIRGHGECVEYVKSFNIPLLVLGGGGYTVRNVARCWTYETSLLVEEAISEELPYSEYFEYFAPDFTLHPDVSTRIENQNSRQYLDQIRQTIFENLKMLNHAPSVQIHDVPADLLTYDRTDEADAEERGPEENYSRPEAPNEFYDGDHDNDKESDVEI
T2 sequence (Q9Y618 395-489 partner limits assumed): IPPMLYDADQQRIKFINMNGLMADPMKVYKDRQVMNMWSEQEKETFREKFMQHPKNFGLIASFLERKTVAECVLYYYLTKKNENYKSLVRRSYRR

Row | SMILES | Selectivity against HDAC6 (IC50 HDACx/IC50 HDAC6) HDAC1 (Human HDAC1) | IC50 (Human HDAC1) | Selectivity against HDAC6 (IC50 HDACx/IC50 HDAC6) HDAC3 (Human HDAC3/NcoR2) | IC50 (Human HDAC3/NcoR2) | IC50 [1] | Selectivity against HDAC6 (IC50 HDACx/IC50 HDAC6) HDAC8 (Human HDAC8) | IC50 (Human HDAC8) | Selectivity against HDAC6 (IC50 HDACx/IC50 HDAC6) HDAC2 (Human HDAC2) | IC50 (Human HDAC2)
1 | COc1ccc(-c2cc(-c3ccccc3)[nH]c2C(=O)NCCCCCC(=O)NO)cc1 [Compound A, N-[6-(hydroxyamino)-6-oxohexyl]-3-(4-methoxyphenyl)-5-phenyl-1H-pyrrole-2-carboxamide, reference compound] | 23.2 | 464 nM | 28.6 | 572 nM | 61 nM | 9.6 | 192 nM | 64.7 | 1290 nM
2 | COc1ccc(-c2cc(-c3ccccc3)c(C(=O)NCCCCCC(=O)NO)[nH]2)cc1 [Compound B, N-[6-(hydroxyamino)-6-oxohexyl]-5-(4-methoxyphenyl)-3-phenyl-1H-pyrrole-2-carboxamide, reference compound] | 8.6 | 276 nM | 13.0 | 415 nM | 27 nM | 5.4 | 174 nM | 28.7 | 918 nM
3 | O=C(CCCCCNC(=O)c1[nH]c(-c2ccccc2)cc1-c1ccc(O)cc1)NO [Example 1, N-(6-(hydroxyamino)-6-oxohexyl)-3-(4-hydroxyphenyl)-5-phenyl-1H-pyrrole-2-carboxamide] | 25.3 | 354 nM | 31.2 | 437 nM | 31 nM | 54.8 | 767 nM | 81.1 | 1140 nM
4 | O=C(CCCCCNC(=O)c1[nH]c(-c2ccc(O)cc2)cc1-c1ccccc1)NO [Example 2, N-(6-(hydroxyamino)-6-oxohexyl)-5-(4-hydroxyphenyl)-3-phenyl-1H-pyrrole-2-carboxamide] | 20.1 | 153 nM | 32.9 | 250 nM | 18 nM | 21.3 | 162 nM | 52.1 | 396 nM
5 | O=C(CCCCCNC(=O)c1[nH]c(-c2ccsc2)cc1-c1ccc(O)cc1)NO [Example 3, N-(5-(hydroxycarbamoyl)pentyl)-3-(4-hydroxyphenyl)-5-(3-thienyl)-1H-pyrrole-2-carboxamide] | – | 438 nM | – | 441 nM | 46 nM | – | 975 nM | – | 1270 nM
6 | O=C(CCCCCNC(=O)c1[nH]c(-c2ccoc2)cc1-c1ccc(O)cc1)NO [Example 4, 5-(3-furyl)-N-(5-(Hydroxycarbamoyl)pentyl)-3-(4-hydroxy-phenyl)-1H-pyrrole-2-carboxamide] | – | 353 nM | – | 341 nM | 33 nM | – | 591 nM | – | 864 nM
7 | O=C(CCCCCNC(=O)c1[nH]c(-c2ccc(O)cc2)cc1-c1ccoc1)NO [Example 5, 3-(3-furyl)-N-(5-(hydroxycarbamoyl)pentyl)-5-(4-hydroxy-phenyl)-1H-pyrrole-2-carboxamide] | – | 19 nM | – | 20 nM | 1.6 nM | – | 278 nM | – | 56 nM
8 | O=C(CCCCCNC(=O)c1[nH]c(-c2ccc(O)cc2)cc1-c1ccsc1)NO [Example 6, N-(5-(hydroxycarbamoyl)pentyl)-5-(4-hydroxyphenyl)-3-(3-thienyl)-1H-pyrrole-2-carboxamide] | – | 49 nM | – | 71 nM | 7.3 nM | – | 104 nM | – | 203 nM
